Read-outs that look alike come from different tables or passages of the source.
Test system: Human prostate PC3 tumor cells
Experiment: aFGF/bFGF-induced resistance and reversal by suramin, sulforhodamine B assay
Assay type: cell-based
Experimental: The experimental conditions are described briefly below. […] Cell number was measured using the sulforhodamine B assay which measures the total protein concentration. […] The FGF-induced resistance was dependent on the FGF concentrations, with a higher resistance at higher FGF concentrations.

[1] = Homo sapiens, read-out: IC50, Control (drug treatment only, without FGF treatment), No suramin, drug 96 hours
[2] = Homo sapiens, read-out: IC50, aFGF 0.3 ng/ml + bFGF 1 ng/ml, No suramin, FGF pretreatment 96 hours, drug 96 hours
[3] = Homo sapiens, read-out: IC50, aFGF 1 ng/ml + bFGF 3 ng/ml, No suramin, FGF pretreatment 96 hours, drug 96 hours
[4] = read-out: IC50, Control (without FGF treatment), Suramin, 15 μM, drug 96 hours with 15 μM suramin
[5] = read-out: IC50, aFGF 0.3 ng/ml + bFGF 1 ng/ml, With suramin, FGF pretreatment 96 hours, drug 96 hours with 15 micromolar suramin
[6] = read-out: IC50, aFGF 1 ng/ml + bFGF 3 ng/ml, With suramin, FGF pretreatment 96 hours, drug 96 hours with 15 micromolar suramin
[7] = no suramin, relative to control
[8] = Homo sapiens, 96 h, read-out: IC50, Control (drug treatment only, without FGF treatment), No suramin

## CO[C@@]12[C@H](COC(N)=O)C3=C(C(=O)C(C)=C(N)C3=O)N1C[C@@H]1N[C@@H]12 [Mitomycin C]
[1]
  IC50: 1610 nM
[2]
  IC50: 3060 nM
[3]
  IC50: 4700 nM
[4]
  IC50: 1530 nM
[5]
  IC50: 1690 nM
[6]
  IC50: 1600 nM

## Sc1ncnc2nc[nH]c12 [6-Mercaptopurine]
[1]
  IC50: 1570 nM
[2]
  IC50: 2990 nM
[3]
  IC50: 5500 nM
[7]
  Resistance, Folds, aFGF 0.3 ng/ml + bFGF 1 ng/ml: 1.90 Folds
  Resistance, Folds, aFGF 1 ng/ml + bFGF 3 ng/ml: 3.50 Folds
[4]
  IC50: 1670 nM
[5]
  IC50: 1700 nM
[6]
  IC50: 1550 nM

## Nc1nc2nc[nH]c2c(=S)[nH]1 [6-Thioguanine]
[1]
  IC50: 280 nM
[2]
  IC50: 960 nM
[3]
  IC50: 1440 nM
[7]
  Resistance, Folds, aFGF 0.3 ng/ml + bFGF 1 ng/ml: 3.43 Folds
  Resistance, Folds, aFGF 1 ng/ml + bFGF 3 ng/ml: 5.14 Folds
[4]
  IC50: 320 nM
[5]
  IC50: 320 nM
[6]
  IC50: 300 nM

## OC[C@H]1O[C@@H](n2cnc3c2NC=NC[C@H]3O)C[C@@H]1O [Pentostatin]
[8]
  IC50: 336000 nM

## COc1cc(NS(C)(=O)=O)ccc1Nc1c2ccccc2nc2ccccc12 [Amsacrine]
[1]
  IC50: 710 nM
[2]
  IC50: 1320 nM
[3]
  IC50: 1900 nM
[7]
  Resistance, Folds, aFGF 0.3 ng/ml + bFGF 1 ng/ml: 1.85 Folds
  Resistance, Folds, aFGF 1 ng/ml + bFGF 3 ng/ml: 2.66 Folds
[4]
  IC50: 680 nM
[5]
  IC50: 740 nM
[6]
  IC50: 670 nM

## COc1cc([C@@H]2c3cc4c(cc3[C@@H](O[C@@H]3O[C@@H]5CO[C@@H](C)O[C@H]5[C@H](O)[C@H]3O)[C@H]3COC(=O)[C@H]23)OCO4)cc(OC)c1O [Etoposide]
[1]
  IC50: 1840 nM
[2]
  IC50: 2340 nM
[3]
  IC50: 3400 nM
[7]
  Resistance, Folds, aFGF 0.3 ng/ml + bFGF 1 ng/ml: 1.27 Folds
  Resistance, Folds, aFGF 1 ng/ml + bFGF 3 ng/ml: 1.85 Folds
[4]
  IC50: 1750 nM
[5]
  IC50: 1600 nM
[6]
  IC50: 1610 nM

## O=C1NC2(CCCCC2)C(=O)N1CCN(CCCl)CCCl [Spiromustine]
  Resistance, Folds, aFGF 0.3 ng/ml + bFGF 1 ng/ml: 2.15 Folds
  Resistance, Folds, aFGF 1 ng/ml + bFGF 3 ng/ml: 3.46 Folds
[8]
  IC50: 25300 nM
Homo sapiens, 96 h, read-out: IC50, aFGF 0.3 ng/ml + bFGF 1 ng/ml, No suramin
  IC50: 54500 nM
Homo sapiens, 96 h, read-out: IC50, aFGF 1 ng/ml + bFGF 3 ng/ml, No suramin
  IC50: 87600 nM
read-out: IC50, Control (without FGF treatment), Suramin, 15 μM
  IC50: 24400 nM
read-out: IC50, aFGF 0.3 ng/ml + bFGF 1 ng/ml, With suramin
  IC50: 25400 nM
read-out: IC50, aFGF 1 ng/ml + bFGF 3 ng/ml, With suramin
  IC50: 26600 nM

## Nc1ccn([C@@H]2O[C@H](CO)[C@@H](O)C2(F)F)c(=O)n1 [Gemcitabine]
[1]
  IC50: 6.84 nM
[2]
  IC50: 9.61 nM
[3]
  IC50: 13.1 nM
[7]
  Resistance, Folds, aFGF 0.3 ng/ml + bFGF 1 ng/ml: 1.41 Folds
  Resistance, Folds, aFGF 1 ng/ml + bFGF 3 ng/ml: 1.91 Folds
[4]
  IC50: 6.95 nM
[5]
  IC50: 6.12 nM
[6]
  IC50: 5.99 nM

## CS(=O)(=O)OCCCCOS(C)(=O)=O [Busulfan]
[1]
  IC50: 86200 nM
[7]
  Resistance, Folds, aFGF 0.3 ng/ml + bFGF 1 ng/ml: 1.14 Folds
  Resistance, Folds, aFGF 1 ng/ml + bFGF 3 ng/ml: 1.48 Folds
[4]
  IC50: 89200 nM

## COc1cccc2c1C(=O)c1c(O)c3c(c(O)c1C2=O)C[C@@](O)(C(=O)CO)C[C@@H]3O[C@H]1C[C@H](N)[C@@H](O)[C@H](C)O1 [Epirubicin]
[1]
  IC50: 102 nM
[2]
  IC50: 167 nM
[3]
  IC50: 282 nM
[7]
  Resistance, Folds, aFGF 0.3 ng/ml + bFGF 1 ng/ml: 1.63 Folds
  Resistance, Folds, aFGF 1 ng/ml + bFGF 3 ng/ml: 2.75 Folds
[4]
  IC50: 120 nM
[5]
  IC50: 122 nM
[6]
  IC50: 137 nM

## C/C=C1\NC(=O)[C@H]2CSSCC/C=C/[C@H](CC(=O)N[C@H](C(C)C)C(=O)N2)OC(=O)[C@H](C(C)C)NC1=O [Depsipeptide]
[1]
  IC50: 1.12 nM
[2]
  IC50: 1.55 nM
[3]
  IC50: 2.16 nM
[7]
  Resistance, Folds, aFGF 0.3 ng/ml + bFGF 1 ng/ml: 1.38 Folds
  Resistance, Folds, aFGF 1 ng/ml + bFGF 3 ng/ml: 1.93 Folds
[4]
  IC50: 1.03 nM
[5]
  IC50: 1.16 nM
[6]
  IC50: 1.16 nM

## N[C@@H](CN(O)N=O)C(=O)O [Alanosine]
[1]
  IC50: 2060 nM
[2]
  IC50: 4180 nM
[3]
  IC50: 7080 nM
[7]
  Resistance, Folds, aFGF 0.3 ng/ml + bFGF 1 ng/ml: 2.03 Folds
  Resistance, Folds, aFGF 1 ng/ml + bFGF 3 ng/ml: 3.44 Folds
[4]
  IC50: 2150 nM
[5]
  IC50: 2400 nM
[6]
  IC50: 2120 nM

## O=P1(NCCCl)OCCCN1CCCl (stereo not shown) [Ifosfamide]
[1]
  IC50: 2660 nM
[2]
  IC50: 5010 nM
[3]
  IC50: 8120 nM
[7]
  Resistance, Folds, aFGF 0.3 ng/ml + bFGF 1 ng/ml: 1.88 Folds
  Resistance, Folds, aFGF 1 ng/ml + bFGF 3 ng/ml: 3.05 Folds
[4]
  IC50: 2230 nM
[5]
  IC50: 2220 nM
[6]
  IC50: 2550 nM
